Measured values published in US10294202B2, “Pyrrolidinones as herbicides” (FMC Corporation, priority 2013, dated 2019).

Legend:
surinam grass = experiment: Test C pre-/postemergence herbicide test; format: in vivo, Brachiaria decumbens; conditions: Preemergence
Description: (§1) Seeds of plant species selected from blackgrass (Alopecurus myosuroides), ryegrass, Italian (Italian ryegrass, Lolium multiflorum), wheat (winter wheat, Triticum aestivum), galium (catchweed bedstraw, Galium aparine), corn (Zea mays), crabgrass, large (large crabgrass, Digitaria sanguinalis), foxtail, giant (giant foxtail, Setaria faberii), johnsongrass (Sorghum halepense), lambsquarters (Chenopodium album), morningglory (Ipomoea coccinea), nutsedge, yellow (yellow nutsedge, Cyperus esculentus), pigweed (Amaranthus retroflexus), ragweed (common ragweed, Ambrosia elatior), soybean (Glycine max), barnyardgrass (Echinochloa crus-galli), oilseed rape (Brassica napus), waterhemp (common waterhemp, Amaranthus rudis), kochia (Kochia scoparia), oat, wild (wild oat, Avena fatua), surinam grass (Brachiaria decumbens), foxtail, green (green foxtail, Setaria viridis), goosegrass (Eleusine indica), bromegrass, downy (downy bromegrass, Bromus tectorum), nightshade (eastern black nightshade, Solanum ptycanthum), cocklebur (common cocklebur, Xanthium strumarium), cupgrass, woolly (woolly cupgrass, Eriochloa villosa), bermudagrass (Cynodon dactylon), sunflower, (common oilseed sunflower, Helianthus annuus), Russian thistle (Salsola kali) and velvetleaf (Abutilon theophrasti) were planted into a blend of loam soil and sand and treated preemergence with test chemicals formulated in a non-phytotoxic solvent mixture which included a surfactant. At the same time, plants selected from these crop and weed species and also barley (winter barley, Hordeum vulgare), […]), chickweed (common chickweed, Stellaria media), deadnettle (henbit deadnettle, Lamium amplexicaule), and canarygrass (littleseed canarygrass, Phalaris minor) were planted in pots containing Redi-Earth® planting medium (Scotts Company, 14111 Scottslawn Road, Marysville, Ohio 43041) comprising spaghnum peat moss, vermiculite, wetting agent and starter nutrients and treated with postemergence applications of test chemicals formulated in the same manner. Plants ranged in height from 2 to 18 cm (1- to 4-leaf stage) for postemergence treatments. Treated plants and controls were maintained in a greenhouse for 13 to 15 days, after which time all species were compared to controls and visually evaluated. Plant response ratings, summarized in Table C, are based on a scale of 0 to 100 where 0 is no effect and 100 is complete control. A dash (-) response means no test result.

foxtail, green = experiment: Test C pre-/postemergence herbicide test; format: in vivo, Setaria viridis; conditions: Preemergence
Description: as §1

goosegrass = experiment: Test C pre-/postemergence herbicide test; format: in vivo, Eleusine indica; conditions: Preemergence
Description: as §1

bromegrass, downy = experiment: Test C pre-/postemergence herbicide test; format: in vivo, Bromus tectorum; conditions: Preemergence
Description: as §1

nightshade = experiment: Test C pre-/postemergence herbicide test; format: in vivo, Solanum ptycanthum; conditions: Preemergence
Description: as §1

cocklebur = experiment: Test C pre-/postemergence herbicide test; format: in vivo, Xanthium strumarium; conditions: Preemergence, scale 0 to 100 (0 no effect, 100 complete control)
Description: as §1

cupgrass, woolly = experiment: Test C pre-/postemergence herbicide test; format: in vivo, Eriochloa villosa; conditions: Preemergence
Description: as §1

bermudagrass = experiment: Test C pre-/postemergence herbicide test; format: in vivo, Cynodon dactylon; conditions: Preemergence
Description: as §1

sunflower = experiment: Test C pre-/postemergence herbicide test; format: in vivo, Helianthus annuus; conditions: Preemergence
Description: as §1

barley, spring = experiment: Test D pre-/postemergence herbicide test; format: in vivo, Hordeum vulgare; conditions: for Plant response rating: Barley, Spring, scale 0 to 100; for Plant response rating, Barley, Spring: scale 0 to 100 (0 no effect, 100 complete control)
Description: (§2) Seeds of plant species selected from bluegrass (annual bluegrass, Poa annua), blackgrass (Alopecurus myosuroides), canarygrass (littleseed canarygrass, Phalaris minor), chickweed (common chickweed, Stellaria media), galium (catchweed bedstraw, Galium aparine), bromegrass, downy (downy bromegrass, Bromus tectorum), field poppy (Papaver rhoeas), field violet (Viola arvensis), foxtail, green (green foxtail, Setaria viridis), deadnettle (henbit deadnettle, Lamium amplexicaule), ryegrass, Italian (Italian ryegrass, Lolium multiflorum), kochia (Kochia scoparia), lambsquarters (Chenopodium album), oilseed rape (Brassica napus), pigweed (Amaranthus retroflexus), chamomile (scentless chamomile, Matricaria inodora), Russian thistle (Salsola kali), speedwell (bird's-eye speedwell, Veronica persica), barley, spring (spring barley, Hordeum vulgare), wheat, spring (spring wheat, Triticum aestivum), buckwheat, wild (wild buckwheat, Polygonum convolvulus), mustard, wild (wild mustard, Sinapis arvensis), oat, wild (wild oat, Avena fatua), radish, wild (wild radish, Raphanus raphanistrum), […]), barley, winter (winter barley, Hordeum vulgare), and wheat, winter (winter wheat, Triticum aestivum) were planted into a silt loam soil and treated preemergence with test chemicals formulated in a non-phytotoxic solvent mixture which included a surfactant. At the same time, these species were planted in pots containing Redi-Earth® planting medium (Scotts Company, 14111 Scottslawn Road, Marysville, Ohio 43041) comprising spaghnum peat moss, vermiculite, wetting agent and starter nutrients and treated with postemergence applications of the test chemicals formulated in the same manner. Plants ranged in height from 2 to 18 cm (1- to 4-leaf stage). Treated plants and controls were maintained in a controlled growth environment for 7 to 21 days after which time all species were compared to controls and visually evaluated. Plant response ratings, summarized in Table D, are based on a scale of 0 to 100 where 0 is no effect and 100 is complete control. A dash (-) response means no test result.

barley, winter = experiment: Test D pre-/postemergence herbicide test; format: in vivo, Hordeum vulgare; conditions: for Plant response rating: Barley, Winter, scale 0 to 100; for Plant response rating, Barley, Winter: scale 0 to 100 (0 no effect, 100 complete control)
Description: as §2

[1] = 125 g ai/ha, scale 0 to 100 (0 no effect, 100 complete control)
[2] = 31 g ai/ha, scale 0 to 100 (0 no effect, 100 complete control)
[3] = 250 g ai/ha, scale 0 to 100 (0 no effect, 100 complete control)

O=C1NCC(c2ccc(Cl)c(F)c2)C1C(=O)Nc1ccccc1F (stereo not shown) [Compound 53] was tested, and the “Plant response rating, Surinam Grass” value (surinam grass; 62 g ai/ha, scale 0 to 100) was 25, the “Plant response rating, Surinam Grass” value (surinam grass; [1]) was 75 and the “Foxtail, Green plant response rating” value (foxtail, green; [2]) was 30. For the same molecule, the “Plant response rating, Foxtail, Green” value (foxtail, green; 62 g ai/ha, scale 0 to 100) was 90, the “Plant response rating, Foxtail, Green” value (foxtail, green; [1]) was 90 and the “Plant response rating, Foxtail, Green” value (foxtail, green; [3]) was 90. For the same molecule, the “Goosegrass plant response rating” value (goosegrass; [2]) was 0, the “Plant response rating, Goosegrass” value (goosegrass; 62 g ai/ha, scale 0 to 100) was 10 and the “Plant response rating, Goosegrass” value (goosegrass; [1]) was 30. The “Bromegrass, Downy plant response rating” value (bromegrass, downy; [2]) was 0, the “Plant response rating, Bromegrass, Downy” value (bromegrass, downy; 62 g ai/ha, scale 0 to 100) was 0 and the “Plant response rating, Bromegrass, Downy” value (bromegrass, downy; [1]) was 0. For the same molecule, the “Plant response rating, Bromegrass, Downy” value (bromegrass, downy; [3]) was 0, the “Plant response rating, Nightshade” value (nightshade; 62 g ai/ha, scale 0 to 100) was 0 and the “Plant response rating, Nightshade” value (nightshade; [1]) was 40. The “Plant response rating, Cocklebur” value (cocklebur; 125 g ai/ha) was 5, the “Plant response rating, Cocklebur” value (cocklebur; 250 g ai/ha) was 5 and the “Cupgrass, Woolly plant response rating” value (cupgrass, woolly; [2]) was 35. For the same molecule, the “Plant response rating, Cupgrass, Woolly” value (cupgrass, woolly; 62 g ai/ha, scale 0 to 100) was 65, the “Plant response rating, Cupgrass, Woolly” value (cupgrass, woolly; [1]) was 80 and the “Plant response rating, Cupgrass, Woolly” value (cupgrass, woolly; [3]) was 80. The “Bermudagrass plant response rating” value (bermudagrass; [2]) was 40, the “Plant response rating, Bermudagrass” value (bermudagrass; 62 g ai/ha, scale 0 to 100) was 40 and the “Plant response rating, Bermudagrass” value (bermudagrass; [1]) was 50. For the same molecule, the “Plant response rating, Bermudagrass” value (bermudagrass; [3]) was 50, the “Plant response rating Sunflower” value (sunflower; 62 g ai/ha, scale 0 to 100) was 15 and the “Plant response rating Sunflower” value (sunflower; [1]) was 20.

O=C1NCC(c2ccc(F)c(F)c2)C1C(=O)Nc1cccc(F)c1 (racemic) [Compound 12] showed a Plant response rating (barley, spring; Postemergence, 16 g ai/ha) of 0, a Plant response rating (barley, spring; Postemergence, 31 g ai/ha) of 0 and a Plant response rating (barley, spring; Postemergence, 62 g ai/ha) of 5. For the same molecule, the Plant response rating (barley, spring; Postemergence, 125 g ai/ha) was 5, the Plant response rating (barley, spring; Postemergence, 250 g ai/ha) was 5 and the “Plant response rating, Barley, Spring” value (barley, spring; Preemergence, 31 g ai/ha) was 0. For the same molecule, the “Plant response rating, Barley, Spring” value (barley, spring; Preemergence, 62 g ai/ha) was 0, the “Plant response rating, Barley, Spring” value (barley, spring; Preemergence, 16 g ai/ha) was 0 and the Plant response rating (barley, spring; Preemergence, 125 g ai/ha) was 0. It also gave a Plant response rating (barley, spring; Preemergence, 250 g ai/ha) of 0, a Plant response rating (barley, winter; Postemergence, 16 g ai/ha) of 0 and a Plant response rating (barley, winter; Postemergence, 31 g ai/ha) of 0. It also gave a Plant response rating (barley, winter; Postemergence, 62 g ai/ha) of 0, a Plant response rating (barley, winter; Postemergence, 125 g ai/ha) of 0 and a Plant response rating (barley, winter; Postemergence, 250 g ai/ha) of 0. The “Plant response rating, Barley, Winter” value (barley, winter; Preemergence, 31 g ai/ha) was 0, the “Plant response rating, Barley, Winter” value (barley, winter; Preemergence, 62 g ai/ha) was 0 and the “Plant response rating, Barley, Winter” value (barley, winter; Preemergence, 16 g ai/ha) was 0. The Plant response rating (barley, winter; Preemergence, 125 g ai/ha) was 0 and the Plant response rating (barley, winter; Preemergence, 250 g ai/ha) was 0.

For O=C1NCC(c2cccc(C(F)(F)F)c2)C1C(=O)Nc1ccc(F)cc1F (racemic) [Compound 207], the “Plant response rating, Barley, Spring” value (barley, spring; Preemergence, 31 g ai/ha) was 0, the “Plant response rating, Barley, Spring” value (barley, spring; Preemergence, 62 g ai/ha) was 5 and the “Plant response rating, Barley, Spring” value (barley, spring; Preemergence, 125 g ai/ha) was 20. The Plant response rating (barley, spring; Preemergence, 250 g ai/ha) was 25, the “Plant response rating, Barley, Winter” value (barley, winter; Preemergence, 31 g ai/ha) was 5 and the “Plant response rating, Barley, Winter” value (barley, winter; Preemergence, 62 g ai/ha) was 10. The “Plant response rating, Barley, Winter” value (barley, winter; Preemergence, 125 g ai/ha) was 25 and the Plant response rating (barley, winter; Preemergence, 250 g ai/ha) was 45.
